Assay [1] has as its target T1, Human β2 adrenoceptor (Homo sapiens, UniProt P07550).
T1 construct: purchased Perkin Elmer
Briefly: β2 Adrenoceptor Radioligand Binding Assay. The settings on record: human β2 adrenoceptor membranes, 125-I Cyanopindolol; read-out: B2 binding affinity (Ki class). On the procedure: β2 Adrenoceptor Radioligand Binding Assay
The assay was carried out in 96-well polypropylene plates in a volume of 200 ul. The assay buffer used was 25 mM HEPES, 0.5% BSA (w/v), 1 mM EDTA, 0.02% ascorbic acid (v/v), (pH 7.4). The final assay concentration of DMSO was 0.5% (v/v). The plates were sealed and incubated for 1 h at room temperature on an orbital shaker (slow speed). Membranes were harvested onto 96-well unifilter GF/C filter plates pre-treated with 0.5% polyethyleneimine (v/v), using a filter manifold, washed six times with 200 ul of wash buffer containing 10 mM HEPES and 500 mM NaCl. The plates were dried before addition of 50 μl of microscint-0, sealed then read in a Trilux Microbeta scintillation counter. IC50 values are determined from competition curves using a non-linear curve fitting program. Ki values were calculated from IC50 values by the Cheng and Prusoff equation.

The target in assay [2] is T2, Human M3 receptor (Homo sapiens, UniProt P20309).
T2 construct: purchased Perkin Elmer
Put plainly: M3 Receptor Radioligand Binding Assay. Particulars: human M3 receptor membranes, [3H]-N-methyl scopolamine; read-out: M3 binding affinity (Ki class). The method, then: Biological Characterization M3 Receptor Radioligand Binding Assay
The assay was carried out in 96-well polypropylene plates in a volume of 250 ul. […] The final assay concentration of DMSO was 0.5% (v/v). The plates were sealed and incubated for 2 h at room temperature on an orbital shaker (slow speed). Membranes were harvested onto 96-well unifilter GF/C filter plates pre-treated with 0.5% polyethyleneimine (v/v), using a filter manifold, washed four times with 200 ul of assay buffer. The plates were dried before addition of 50 μl of microscint-0, sealed then read in a Trilux Microbeta scintillation counter.

As usually defined, the Ki is the dissociation constant of the complex between target and ligand, obtained from inhibition or displacement.

T2 sequence (P20309 whole entry): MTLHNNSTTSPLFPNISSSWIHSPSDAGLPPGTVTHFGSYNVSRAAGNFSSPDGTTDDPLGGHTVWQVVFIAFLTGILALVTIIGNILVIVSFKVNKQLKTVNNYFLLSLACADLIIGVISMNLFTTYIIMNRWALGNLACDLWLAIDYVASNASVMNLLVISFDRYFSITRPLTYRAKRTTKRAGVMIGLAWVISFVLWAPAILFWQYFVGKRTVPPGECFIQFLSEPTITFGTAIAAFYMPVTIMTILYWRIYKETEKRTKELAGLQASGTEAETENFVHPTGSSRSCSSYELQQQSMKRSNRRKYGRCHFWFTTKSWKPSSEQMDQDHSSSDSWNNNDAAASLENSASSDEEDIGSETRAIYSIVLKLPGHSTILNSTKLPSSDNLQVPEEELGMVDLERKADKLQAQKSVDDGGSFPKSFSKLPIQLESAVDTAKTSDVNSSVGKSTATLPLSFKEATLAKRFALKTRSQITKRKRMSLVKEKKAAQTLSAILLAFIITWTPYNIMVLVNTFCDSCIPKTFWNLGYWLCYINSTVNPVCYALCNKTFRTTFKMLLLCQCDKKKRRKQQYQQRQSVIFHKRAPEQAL
T1 sequence (P07550 whole entry): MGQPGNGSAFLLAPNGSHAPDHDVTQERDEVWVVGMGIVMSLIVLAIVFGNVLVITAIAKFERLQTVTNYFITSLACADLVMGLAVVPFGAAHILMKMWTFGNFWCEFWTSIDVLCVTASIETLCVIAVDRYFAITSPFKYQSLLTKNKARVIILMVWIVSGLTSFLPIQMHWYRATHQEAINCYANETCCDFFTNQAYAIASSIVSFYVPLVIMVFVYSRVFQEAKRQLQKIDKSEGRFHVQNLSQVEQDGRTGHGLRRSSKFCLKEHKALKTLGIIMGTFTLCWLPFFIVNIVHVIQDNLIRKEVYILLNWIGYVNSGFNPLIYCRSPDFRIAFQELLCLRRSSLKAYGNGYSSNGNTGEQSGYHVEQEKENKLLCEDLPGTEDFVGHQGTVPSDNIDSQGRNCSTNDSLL

Turning to `O=C(c1ccc(OCCCCCNC[C@H](O)c2ccc(O)c3[nH]c(=O)ccc23)cc1)N1CCC(C(=O)O[C@H]2CN3CCC2CC3)(c2ccccc2)CC1` [Compound 1, (R)-Quinuclidin-3-yl 1-(4-((5-(((R)-2-hydroxy-2-(8-hydroxy-2-oxo-1,2-dihydroquinolin-5-yl)ethyl)amino)pentyl)oxy)benzoyl)-4-phenylpiperidine-4-carboxylate], the Ki in assay [1] and in assay [2] was under 1 nM each time.

In the case of `O=C(c1ccc(OCCCCCNC[C@H](O)c2ccc(O)c3[nH]c(=O)ccc23)cc1)N1CC(C(=O)O[C@H]2CN3CCC2CC3)(c2ccccc2)C1` [Compound 1A, (R)-Quinuclidin-3-yl 1-(4-((5-(((R)-2-hydroxy-2-(8-hydroxy-2-oxo-1,2-dihydroquinolin-5-yl)ethyl)amino)pentyl)oxy)benzoyl)-3-phenylazetidine-3-carboxylate], the inhibitory constant (Ki) is under 1 nM in assay [1] and 1 to 10 nM in assay [2].

For the molecule `O=C(c1cccc(OCCCCCNC[C@H](O)c2ccc(O)c3[nH]c(=O)ccc23)c1)N1CCC(C(=O)O[C@H]2CN3CCC2CC3)(c2ccccc2)CC1` [Compound 2, (R)-Quinuclidin-3-yl 1-(3-((5-(((R)-2-hydroxy-2-(8-hydroxy-2-oxo-1,2-dihydroquinolin-5-yl)ethyl)amino)pentyl)oxy)benzoyl)-4-phenylpiperidine-4-carboxylate], the Ki in assay [1] was under 1 nM; in assay [2], 1 to 10 nM.

On to `O=C(c1ccc(OCCCCCCNC[C@H](O)c2ccc(O)c3[nH]c(=O)ccc23)cc1)N1CC(C(=O)O[C@H]2CN3CCC2CC3)(c2ccccc2)C1` [Compound 2A, (R)-Quinuclidin-3-yl 1-(4-((6-(((R)-2-hydroxy-2-(8-hydroxy-2-oxo-1,2-dihydroquinolin-5-yl)ethyl)amino)hexyl)oxy)benzoyl)-3-phenylazetidine-3-carboxylate], for which the inhibition constant (Ki) in assay [1] and in assay [2] was under 1 nM in each case.

With `COc1cc(C(=O)N2CCC(C(=O)O[C@H]3CN4CCC3CC4)(c3ccccc3)CC2)ccc1OCCCCCNC[C@H](O)c1ccc(O)c2[nH]c(=O)ccc12` [Compound 3, (R)-Quinuclidin-3-yl 1-(4-((5-(((R)-2-hydroxy-2-(8-hydroxy-2-oxo-1,2-dihydroquinolin-5-yl)ethyl)amino)pentyl)oxy)-3-methoxybenzoyl)-4-phenylpiperidine-4-carboxylate], the Ki is under 1 nM in assay [1] and 1 to 10 nM in assay [2].

Regarding `O=C(c1ccc(OCCCCCCNC[C@H](O)c2ccc(O)c3[nH]c(=O)ccc23)cc1)N1CC(C(=O)O[C@H]2CN3CCC2CC3)(c2ccc(F)cc2)C1` [Compound 3A, (R)-Quinuclidin-3-yl 3-(4-fluorophenyl)-1-(4-((6-(((R)-2-hydroxy-2-(8-hydroxy-2-oxo-1,2-dihydroquinolin-5-yl)ethyl)amino)hexyl)oxy)benzoyl)azetidine-3-carboxylate], the Ki was under 1 nM in assay [1] and 1 to 10 nM in assay [2].

Turning to `O=C(c1ccc(OCCCCCNC[C@H](O)c2ccc(O)c3[nH]c(=O)ccc23)c(Cl)c1)N1CCC(C(=O)O[C@H]2CN3CCC2CC3)(c2ccccc2)CC1` [Compound 4, (R)-Quinuclidin-3-yl 1-(4-((5-(((R)-2-hydroxy-2-(8-hydroxy-2-oxo-1,2-dihydroquinolin-5-yl)ethyl)amino)pentyl)oxy)-3-chlorobenzoyl)-4-phenylpiperidine-4-carboxylate], the figures for the inhibitory constant (Ki) in assay [1] and in assay [2] were under 1 nM and 1 to 10 nM, respectively.

As to `O=C(c1cccc(OCCCCCNC[C@H](O)c2ccc(O)c3[nH]c(=O)ccc23)c1)N1CC(C(=O)O[C@H]2CN3CCC2CC3)(c2ccccc2)C1` [Compound 4A, (R)-Quinuclidin-3-yl 1-(3-((5-(((R)-2-hydroxy-2-(8-hydroxy-2-oxo-1,2-dihydroquinolin-5-yl)ethyl)amino)pentyl)oxy)benzoyl)-3-phenylazetidine-3-carboxylate], the inhibitory constant (Ki) is under 1 nM in assay [1] and 1 to 10 nM in assay [2].

For the molecule `O=C(c1cc(Cl)c(OCCCCCNC[C@H](O)c2ccc(O)c3[nH]c(=O)ccc23)c(Cl)c1)N1CCC(C(=O)O[C@H]2CN3CCC2CC3)(c2ccccc2)CC1` [Compound 5, (R)-Quinuclidin-3-yl 1-(3,5-dichloro-4-((5-(((R)-2-hydroxy-2-(8-hydroxy-2-oxo-1,2-dihydroquinolin-5-yl)ethyl)amino)pentyl)oxy)benzoyl)-4-phenylpiperidine-4-carboxylate], the inhibition constant Ki in assay [1] and in assay [2] was 1 to 10 nM throughout.

With `O=C(CCc1ccc(OCCCCCNC[C@H](O)c2ccc(O)c3[nH]c(=O)ccc23)cc1)N1CC(C(=O)O[C@H]2CN3CCC2CC3)(c2ccccc2)C1` [Compound 5A, (R)-Quinuclidin-3-yl 1-(3-(4-((5-(((R)-2-hydroxy-2-(8-hydroxy-2-oxo-1,2-dihydroquinolin-5-yl)ethyl)amino)pentyl)oxy)phenyl)propanoyl)-3-phenylazetidine-3-carboxylate], the values for the Ki in assay [1] and in assay [2] were under 1 nM and 1 to 10 nM, respectively.

For the molecule `O=C(c1ccc(OCCCCCNC[C@H](O)c2ccc(O)c3[nH]c(=O)ccc23)c(-c2ccsc2)c1)N1CCC(C(=O)O[C@H]2CN3CCC2CC3)(c2ccccc2)CC1` [Compound 6, (R)-Quinuclidin-3-yl 1-(4-((5-(((R)-2-hydroxy-2-(8-hydroxy-2-oxo-1,2-dihydroquinolin-5-yl)ethyl)amino)pentyl)oxy)-3-(thiophen-3-yl)benzoyl)-4-phenylpiperidine-4-carboxylate], the results for the Ki in assay [1] and in assay [2] were under 1 nM and over 10 nM, respectively.

Consider `O=C(Cc1ccc(OCCCCCNC[C@H](O)c2ccc(O)c3[nH]c(=O)ccc23)cc1)N1CC(C(=O)O[C@H]2CN3CCC2CC3)(c2ccccc2)C1` [Compound 6A, (R)-Quinuclidin-3-yl 1-(2-(4-((5-(((R)-2-hydroxy-2-(8-hydroxy-2-oxo-1,2-dihydroquinolin-5-yl)ethyl)amino)pentyl)oxy)phenyl)acetyl)-3-phenylazetidine-3-carboxylate], for which the values for the inhibition constant Ki in assay [1] and in assay [2] were under 1 nM and 1 to 10 nM, respectively.

As to `O=C(CCc1ccc(OCCCCCNC[C@H](O)c2ccc(O)c3[nH]c(=O)ccc23)cc1)N1CCC(C(=O)O[C@H]2CN3CCC2CC3)(c2ccccc2)CC1` [Compound 7, (R)-Quinuclidin-3-yl 1-(3-(4-((5-(((R)-2-hydroxy-2-(8-hydroxy-2-oxo-1,2-dihydroquinolin-5-yl)ethyl)amino)pentyl)oxy)phenyl)propanoyl)-4-phenylpiperidine-4-carboxylate], the inhibition constant (Ki) in assay [1] and in assay [2] was under 1 nM throughout.

In the case of `O=C(c1ccc(OCc2cccc(OCCCCNC[C@H](O)c3ccc(O)c4[nH]c(=O)ccc34)c2)cc1)N1CC(C(=O)O[C@H]2CN3CCC2CC3)(c2ccccc2)C1` [Compound 7A, (R)-Quinuclidin-3-yl 1-(4-((3-(4-(((R)-2-hydroxy-2-(8-hydroxy-2-oxo-1,2-dihydroquinolin-5-yl)ethyl)amino)butoxy)benzyl)oxy)benzoyl)-3-phenylazetidine-3-carboxylate], the inhibition constant Ki is under 1 nM in assay [1] and 1 to 10 nM in assay [2].

For the molecule `O=C(Cc1ccc(OCCCCCNC[C@H](O)c2ccc(O)c3[nH]c(=O)ccc23)cc1)N1CCC(C(=O)O[C@H]2CN3CCC2CC3)(c2ccccc2)CC1` [Compound 8, (R)-Quinuclidin-3-yl 1-(2-(4-((5-(((R)-2-hydroxy-2-(8-hydroxy-2-oxo-1,2-dihydroquinolin-5-yl)ethyl)amino)pentyl)oxy)phenyl)acetyl)-4-phenylpiperidine-4-carboxylate], the inhibitory constant (Ki) in assay [1] and in assay [2] was under 1 nM in each case.

For the origin of these results see patent US9662323B2, “Compounds having muscarinic receptor antagonist and beta2 adrenergic receptor agonist activity” (CHIESI FARMACEUTICI S.p.A., priority 2015, dated 2017).
